Results as given in patent publication US5416099A, “Fibrinogen receptor antagonists” (Merck & Co., Inc., priority 1993, dated 1995).

Tested on: Human platelets
Assay: ADP-stimulated platelet aggregation assay (gel-filtered human platelets)
Format: cell-based
Settings: fibrinogen 100 μg/ml, Ca^2+ 1 mM, 10 uM ADP, 37° C., read-out: platelet aggregation inhibition potency, IC50
Description: An ADP-stimulated platelet aggregation assay was used to determine inhibition associated with compounds of the invention.
Human platelets were isolated from fresh blood, collected into acid citrate/dextrose by differential centrifugation followed by gel filtration on Sepharose 2B in divalent ion-free Tyrode's buffer (pH 7.4) containing 2% bovine serum albumin. Platelet aggregation was measured at 37° C. in a a Chronolog aggregometer. The reaction mixture contained gel-filtered human platelets (2×10^8 per ml), fibrinogen (100 μg/ml), Ca^2+ (1 mM), and the compound to be tested. Aggregation was initiated by adding 10 uM ADP 1 minute after the other components had been added. The reaction was allowed to proceed for at least 2 minutes. The extent of inhibition of aggregation was expressed as the percentage of the rate of aggregation observed in the absence of inhibitor. The IC50 is the dose of a particular compound inhibiting aggregation by 50% relative to a control lacking the compound.

IC50 [µM]	Structure (SMILES)
0.92	O=C(O)CCNC(=O)c1ccc2c(c1)C(=O)N(CCCC1CCNCC1)C2
14	O=C(O)CNC(=O)c1ccc2c(c1)C(=O)N(CCCC1CCNCC1)C2
